Measurements from patent US7897591B2, “Method of treating fatty liver disease” (priority 2005, dated 2011).

Legend:
PPAR-α = test: Immunoprecipitation and SDS-PAGE of PPAR-α phosphorylation; format: in vivo, mouse; settings: HCD+MAR group vs control and HCD-only
Experimental: Control animals (n=5) received normal chow and water ad libitum. All animals in the experimental groups were fed a fat-free, high carbohydrate liquid diet (HCD) ad libitum placed in one bottle per cage as previously described (3, 62). No additional sources of nutrition or hydration were provided. The HCD liquid solution contained 20% dextrose, a commercial mixture of 2% essential and nonessential amino acids (TrophAmine, B. Braun Medical, Irvine, Calif.), 2 ml trace elements (Trace Elements Injection 4, USP—Pediatric, American Regent Shirley, N.Y.), and 5 ml multivitamins (M.V.I. Pediatric™, Mayne Pharma, Paramus, N.J.). Each liter of HCD contained 30 meq sodium, 20 meq potassium chloride, 15 meq calcium, 10 meq magnesium, and 10 mM phosphate. The bottles were replaced daily with fresh HCD solution. HCD animals (n=5) received HCD only and no additional treatment for 19 days. The HCD+MAR animals (n=15) additionally received 100 mg/kg of Marimastat™ in 0.45% methylcellulose (Sigma-Aldrich Corporation, St. Louis, Mo.) vehicle twice daily via orogastric gavage. The animals were individually weighed every third day and at sacrifice. Immunoprecipitation was performed according to the Protein-G Immunoprecipitation Kit (Sigma-Aldrich Corporation, St. Louis, Mo.) protocol. […] The sample was then centrifuged and the supernatant was, analyzed by SDS-PAGE as detailed above.

C57BL/6 mice [1] = test: Serum liver function tests (AP, ALT, total and direct bilirubin) in HCD mouse model; format: in vivo
Experimental: Experiments were performed on 5-6 week-old C57BL/6 mice (Jackson Laboratories, Bar Harbor, Me.). The animals, in groups of five, were housed in a barrier room and were acclimated to their environment for at least 72 hours prior to the initiation of each experiment. Animal protocols complied with the NIH Animal Research Advisory Committee guidelines and were approved by the Children's Hospital Boston Animal Care and Use Committee. Control animals (n=5) received normal chow and water ad libitum. All animals in the experimental groups were fed a fat-free, high carbohydrate liquid diet (HCD) ad libitum placed in one bottle per cage as previously described (3, 62). No additional sources of nutrition or hydration were provided. The HCD liquid solution contained 20% dextrose, a commercial mixture of 2% essential and nonessential amino acids (TrophAmine, B. Braun Medical, Irvine, Calif.), 2 ml trace elements (Trace Elements Injection 4, USP—Pediatric, American Regent Shirley, N.Y.), and 5 ml multivitamins (M.V.I. Pediatric™, Mayne Pharma, Paramus, N.J.). Each liter of HCD contained 30 meq sodium, 20 meq potassium chloride, 15 meq calcium, 10 meq magnesium, and 10 mM phosphate. The bottles were replaced daily with fresh HCD solution. HCD animals (n=5) received HCD only and no additional treatment for 19 days. The HCD+MAR animals (n=15) additionally received 100 mg/kg of Marimastat™ in 0.45% methylcellulose (Sigma-Aldrich Corporation, St. Louis, Mo.) vehicle twice daily via orogastric gavage. The animals were individually weighed every third day and at sacrifice. Mice were anesthetized with 300 μl of 2.5% Avertin (Tribromoethanol, Sigma-Aldrich Corporation, St. Louis, Mo.) by intraperitoneal injection. Approximately 400 μl of blood was collected from each mouse via retro-orbital puncture. The specimens were then placed into serum separator tubes (Becton Dickinson, Franklin Lakes, N.J.), and centrifuged at 4° C. at 8000 rpm for 10 minutes to separate serum. Serum was frozen at −80° C. and delivered to the Clinical Laboratory at Children's Hospital Boston for measurement of aspartate aminotransferase (AST), alanine aminotransferase (ALT), alkaline phosphatase (AP), and total (TB) and direct bilirubin (DB) levels. Furthermore, a fatty acid profile was performed on these samples and TNF-α soluble receptor II levels were determined as described below.

C57BL/6 mice [2] = test: Fatty acid analysis of serum and liver lipids (triglycerides, phospholipids) in HCD mouse model; format: in vivo
Experimental: Experiments were performed on 5-6 week-old C57BL/6 mice (Jackson Laboratories, Bar Harbor, Me.). The animals, in groups of five, were housed in a barrier room and were acclimated to their environment for at least 72 hours prior to the initiation of each experiment. Animal protocols complied with the NIH Animal Research Advisory Committee guidelines and were approved by the Children's Hospital Boston Animal Care and Use Committee. Control animals (n=5) received normal chow and water ad libitum. All animals in the experimental groups were fed a fat-free, high carbohydrate liquid diet (HCD) ad libitum placed in one bottle per cage as previously described (3, 62). No additional sources of nutrition or hydration were provided. The HCD liquid solution contained 20% dextrose, a commercial mixture of 2% essential and nonessential amino acids (TrophAmine, B. Braun Medical, Irvine, Calif.), 2 ml trace elements (Trace Elements Injection 4, USP—Pediatric, American Regent Shirley, N.Y.), and 5 ml multivitamins (M.V.I. Pediatric™, Mayne Pharma, Paramus, N.J.). Each liter of HCD contained 30 meq sodium, 20 meq potassium chloride, 15 meq calcium, 10 meq magnesium, and 10 mM phosphate. The bottles were replaced daily with fresh HCD solution. HCD animals (n=5) received HCD only and no additional treatment for 19 days. The HCD+MAR animals (n=15) additionally received 100 mg/kg of Marimastat™ in 0.45% methylcellulose (Sigma-Aldrich Corporation, St. Louis, Mo.) vehicle twice daily via orogastric gavage. The animals were individually weighed every third day and at sacrifice. Fatty acid analysis was conducted as described previously (1, 2, 31). Briefly, lipids were extracted from serum and livers, and then fractionated into triglycerides and phospholipids by solid phase chromatography using an aminopropyl column. After appropriate processing, samples were injected into a Hewlett Packard 5890A gas chromatograph for analysis.

CNC(=O)[C@@H](NC(=O)[C@H](CC(C)C)[C@H](O)C(=O)NO)C(C)(C)C [Marimastat]
phosphorylation of PPAR-α (PPAR-α): marked increase
total bilirubin level (C57BL/6 mice [1]; HCD+MAR group compared to HCD-only group): significantly lower
serum alanine amino transferase (ALT) level (C57BL/6 mice [1]; HCD+MAR group vs HCD-only, P<0.001): lower
serum alkaline phosphatase (AP) level (C57BL/6 mice [1]; HCD+MAR group, P<0.001): significantly lower
direct bilirubin (DB) level (C57BL/6 mice [1]; all 15 mice in HCD+MAR group, P<0.001): 0
hepatic triglyceride level (C57BL/6 mice [2]; HCD+MAR vs HCD, remained higher than in controls): significantly reduced
serum triglyceride and phospholipids (C57BL/6 mice [2]; HCD+MAR, reduced in HCD-only compared to control): normalized
hepatic phospholipids (C57BL/6 mice [2]; among the three groups): no significant differences
